What was measured:
[1] = tested on: castrate immature male Sprague-Dawley rats; test: sc androgenic assay in castrate immature rats; format: in vivo, rat
[2] = target: T1, rat AR ligand binding domain (ARLBD) (Rattus norvegicus, UniProt P15207); test: Competitive binding to purified rat AR ligand binding domain; conditions: RBA = IC50 R1881/IC50 test compound X 100; R1881 defined as 100%
T1 sequence (P15207 651-882 limits assumed): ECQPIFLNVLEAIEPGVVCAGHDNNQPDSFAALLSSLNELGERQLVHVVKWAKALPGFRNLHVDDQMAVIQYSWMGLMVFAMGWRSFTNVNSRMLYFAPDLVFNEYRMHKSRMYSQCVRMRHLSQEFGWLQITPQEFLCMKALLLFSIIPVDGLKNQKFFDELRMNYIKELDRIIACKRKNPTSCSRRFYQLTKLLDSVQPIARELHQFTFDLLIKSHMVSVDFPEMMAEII

[3] = tested on: castrate immature male Sprague-Dawley rats; test: Effect of dutasteride in the sc androgenic assay; format: in vivo, rat; conditions: 8 days; for effect of concurrent DUT on androgen-stimulated VP and SV weights: maximal stimulatory sc dose of androgen ± DUT 1.0 mg/day orally
[4] = Serum androgen levels by RIA in androgen ± dutasteride treated rats; conditions: for effect of concurrent DUT on serum level of the administered androgen: androgen sc ± DUT 1.0 mg/day orally, blood 2 h after final dose; for serum DHT levels: n=10
[5] = tested on: recombinant human aromatase; conditions: conditions allowing complete conversion of T to estradiol; ref [13]; cited from earlier work
castrate rats = conditions: single sc injection 1.2 mg/rat, castrate 22 day-old rats; ref [5] and unpublished observations; cited from earlier work
[6] = tested on: rat liver or prostate homogenates; conditions: ref Sundaram et al. [1]; cited from earlier work

C[C@@H]1C[C@H]2CC(=O)CC[C@@H]2[C@@H]2[C@@H]1[C@@H]1CC[C@H](O)[C@@]1(C)C[C@@H]2C [5α-DHDMA, 5α-dihydroDMA]
androgenic potency as percent of DMA (ventral prostate growth) ([1]; sc 7 days): 30-40%

C[C@@H]1C[C@H]2CC(=O)CC[C@@H]2[C@H]2CC[C@]3(C)[C@@H](O)CC[C@H]3[C@@H]21 [5α-DHMENT, 5α-dihydroMENT]
Binding to ARLBD RBA [2]: 26%

C[C@]12CCC(=O)C[C@@H]1CC[C@@H]1[C@@H]2CC[C@]2(C)[C@@H](O)CC[C@@H]12 [DHT, 5α-dihydrotestosterone]
effect of concurrent DUT on androgen-stimulated VP and SV weights [3]: comparable
effect of concurrent DUT on serum level of the administered androgen ([4]; 8 days): not significantly different

C[C@@H]1CC2=CC(=O)CC[C@@H]2[C@@H]2[C@@H]1[C@@H]1CC[C@H](O)[C@@]1(C)C[C@@H]2C [DMA, 7α,11β-dimethyl-19-nortestosterone]
anabolic activity (stimulation of LA muscle weight), comparison ([1]; sc, Fig. 1b): greater than that of 5α-DHDMA or T
effect of concurrent DUT on androgen-stimulated VP and SV weights [3]: did not affect VP or SV weights
aromatization to aromatic A-ring estrogen [5]: not aromatized
effect of concurrent DUT on serum level of the administered androgen ([4]; 8 days): not significantly different

CCCCCCCCCCC(=O)O[C@H]1CC[C@H]2[C@H]3[C@H]([C@@H](C)C[C@]12C)[C@H]1CCC(=O)C=C1C[C@H]3C [DMAU, dimethandrolone 17β-undecanoate]
duration VP and SV growth maintained above castrate levels (castrate rats): about 21 weeks

C[C@]12C=CC(=O)N[C@@H]1CC[C@@H]1[C@@H]2CC[C@]2(C)[C@@H](C(=O)Nc3cc(C(F)(F)F)ccc3C(F)(F)F)CC[C@@H]12 [DUT, 17β-N-2,5-bis-[trifluoromethyl]-phenylcarbamoyl-4-aza-5a-androstan-1-en-3-one]
toxicity judged by suppression of body weights ([3]; DUT 10 mg/day orally): showed evidence of toxicity
effect on VP and SV weights in T-treated rats ([3]; DUT 0.1, 1.0 or 10.0 mg/day orally with T 0.23 mg/day sc): significantly decreased
serum DHT levels ([4]; T 0.23 mg sc + DUT 0.1 mg/rat orally, 8 days): 606 ± 111 pg/mL
serum DHT levels ([4]; T 0.23 mg sc + DUT 1.0 mg/rat orally, 8 days): 235 ± 36 pg/mL
serum DHT levels ([4]; T 0.23 mg sc + DUT 10 mg/rat orally, 8 days): 56 ± 4 pg/mL

C[C@@H]1CC2=CC(=O)CC[C@@H]2[C@H]2CC[C@]3(C)[C@@H](O)CC[C@H]3[C@@H]21 [MENT, 7α-methyl-19-nortestosterone]
effect of concurrent DUT on androgen-stimulated VP and SV weights [3]: comparable
5α-reduction [6]: not 5α-reduced
effect of concurrent DUT on serum level of the administered androgen ([4]; 8 days): significantly decreased

C[C@H]1C[C@]2(C)[C@@H](O)CC[C@H]2[C@@H]2CCC3=CC(=O)CC[C@@H]3[C@H]21 [MNT, 11β-methyl-19-nortestosterone]
effect of concurrent DUT on androgen-stimulated VP and SV weights [3]: did not affect VP or SV weights
aromatization to aromatic A-ring estrogen [5]: not aromatized
effect of concurrent DUT on serum level of the administered androgen ([4]; 8 days): higher

CCCCCCCCCCCCOC(=O)O[C@H]1CC[C@H]2[C@@H]3CCC4=CC(=O)CC[C@@H]4[C@H]3[C@@H](C)C[C@]12C [MNTDC, 11β-methyl-19-nortestosterone 17β-dodecylcarbonate]
duration VP and SV growth maintained above castrate levels (castrate rats): ~14 weeks

C[C@]12CC[C@H]3[C@@H](CCC4=CC(=O)CC[C@@]43C)[C@@H]1CC[C@@H]2O [T, Testosterone]
effect of concurrent DUT on androgen-stimulated VP and SV weights [3]: significantly blunted
effect of concurrent DUT on serum DHT in T-treated rats ([4]; T sc + DUT 1.0 mg/day orally, 8 days): suppressed to levels observed in castrate vehicle-treated rats
effect of concurrent DUT on serum level of the administered androgen ([4]; 8 days): significantly elevated
serum DHT levels ([4]; rats treated sc with 0.23 mg T alone for 8 days, 2 h after final dose): 1,247 ± 106 pg/ml
